Laboratory results as given in patent publication US20250197846A1, “TAGMENTATION WORKFLOW” (ILLUMINA, INC., priority 2022, published 2025).
“Also recorded” adds a separate entry of the source.

Tested on: Tn5 transposase enzyme bound to tagmented DNA (tagmented DNA complex), Mg^2+ cofactor
Assay: Removal of Tn5 transposase from tagmented DNA complex after tagmentation with Mg2+ cofactor (library yield and insert size profile after PCR)
From the text: As such Mg^2+ was the divalent cation cofactor.
In the workflow for experiment A: DNA was first tagmented, appending the transferred strand of the adaptor to the 5′ ends of the tagmented DNA, and then treated with water (not sodium dodecyl sulfate (SDS)), thus keeping the Tn5 bound to the tagmented DNA. The tagmented DNA complex was washed and subjected to PCR (including high temperature heating which may dissociate the Tn5) to append adaptor sequences to the 3′ ends of the tagmented DNA.
In the workflow for experiment, B: DNA was first tagmented, appending the transferred strand of the adaptor to the 5′ ends of the tagmented DNA, and then was treated with SDS to denature the Tn5 enzyme, thus dissociating it from the tagmented DNA complex. The SDS was washed away and the tagmented DNA fragments were exposed to PCR to append adaptor sequences to the 3′ ends of the tagmented DNA.
Some of the supernatant was analyzed using a TapeStation. The size profile and yield of the tagmented DNA fragments from experiments A and B were measured using the TapeStation.
As such, Mg^2+ was the divalent cation cofactor.
In the workflow for experiment A: DNA was first tagmented, appending the transferred strand of the adaptor to the 5′ ends of the tagmented DNA. Tn5 was removed by adding 1% SDS and incubating for 5 minutes at 25° C.
In the workflow for experiment B: DNA was first tagmented, appending the transferred strand of the adaptor to the 5′ ends of the tagmented DNA. […] In experiment B, the transposase removal fluid included 100 mM Tris-HCl, pH 8.6, 100 mM NaCl, and 0.6 mM EDTA.
In the workflow for experiments A and B: DNA was first tagmented, appending the transferred strand of the adaptor to the 5′ ends of the tagmented DNA. Tn5 was removed by adding 1% SDS and incubating for 5 minutes at 25° C.
In the workflow for experiments C and D: DNA was first tagmented, appending the transferred strand of the adaptor to the 5′ ends of the tagmented DNA.
For each of these experiments, the tagmentation buffer included water, 4% DMF, 2 mM magnesium acetate, and 4 mM tris acetate salt, pH 7.6. As such Mg^2+ was the divalent cation cofactor.
In the workflow for experiment B: DNA was first tagmented, appending the transferred strand of the adaptor to the 5′ ends of the tagmented DNA. […] In experiment B, the transposase removal fluid included 140 mM Tris, pH 8.8, 100 mM KCl, and 1.8 mM EDTA. […] The sample was processed under Extension-Ligation and PCR-cycling conditions with a ligase, non-strand displacing polymerase and Q5 polymerase in a buffer base with 2.4 mM Magnesium.
In the workflow for experiment A: DNA was first tagmented using the Mg^2+ tagmentation buffer described in this example, appending the transferred strand of the adaptor to the 5′ ends of the tagmented DNA. Tn5 was removed by adding 1% SDS and incubating for 5 minutes at 25° C.
In the workflow for experiment D: DNA was first tagmented using the Mg^2+ tagmentation buffer described in this example, appending the transferred strand of the adaptor to the 5′ ends of the tagmented DNA.
In the workflow for experiment A: DNA was first tagmented, appending the transferred strand of the adaptor to the 5′ ends of the tagmented DNA. […] In experiment A, the transposase removal fluid included 500 mM Tris, pH 8.6, 100 mM NaCl, and 15 mM 2-hydroxy-4-oxo-4-thiophen-2-yl-but-2-enoic acid integrase inhibitor. […]

Row | SMILES | Dissociation of Tn5 enzyme from tagmented DNA complex (yield and insert size profile, FIG. 5) (Example 2, supernatant discarded, 100 mM Tris-HCl pH 8.6, 100 mM NaCl, 0.6 mM EDTA, 1 minute at 60° C., compared with 1% SDS) | Dissociation of Tn5 from tagmented DNA complex (size profile and yield, FIG. 6) (Example 3, applied directly without removing supernatant, 100 mM Tris-HCl pH 8.6, 100 mM NaCl, 6 mM EDTA, 1 minute at 60° C.) | Dissociation of Tn5 from tagmented DNA complex (size profile and yield, FIG. 7) (Example 4, 140 mM Tris pH 8.8, 100 mM KCl, 1.8 mM EDTA, 1 minute at 60° C., extension-ligation and PCR added directly with 2.4 mM magnesium) | Tn5 removal from the tagmented product complex (yield and insert size profile, FIG. 4) (Example 1, SDS treatment versus water and high temperature heating of PCR, Mg2+ cofactor, sulfate)
1 | O=C(O)CN(CCN(CC(=O)O)CC(=O)O)CC(=O)O [EDTA, ethylenediaminetetraacetic acid] | sufficient to replace SDS as a reagent for dissociating the Tn5 enzyme from a tagmented DNA complex | can effectively dissociate Tn5 from the tagmented DNA complex | can dissociate Tn5 from the tagmented DNA complex | 
2 | CCCCCCCCCCCCOS(=O)(=O)[O-].[Na+] [SDS, sodium dodecyl sulfate] |  |  |  | more effective than heating alone; also recorded: more effective in removing Tn5 from the tagmented product complex than the high temperature heating used in PCR
